Experimental data from patent US20220017468A1, “ISOQUINOLINE COMPOUNDS AND THEIR USE IN TREATING AhR IMBALANCE” (Dermavant Sciences GmbH, priority 2020, published 2022).
Values joined by “and” are separate entries in the source; they are usually repeats but may differ in a detail not shown here. Identical values can stand only once. Like-named read-outs stand apart in the source and are kept apart here.

Tests used:
[1] = system: AhR pathway (CYP1A1 mRNA); assay: sRICA ex vivo human skin explant, CYP1A1 induction; type: cell-based; settings: 1 μM or 10 μM in the baso-lateral media
Text: (§1) A liquid-air interface skin explant culture with the in situ activation of immunocompetent cells, termed sRICA for skin-Resident Immune Cell Activation model was previously reported (Smith et al., (2016) PLoS One, 11(2)). In this assay, specific cytokine profiles of inflammatory skin diseases can be induced, including the Th17-type cytokines, IL17A, IL17F and IL22. Reduction of biomarkers in this assay indicates biological activity of the test compound.
(§2) Ex vivo human skin obtained from abdominoplasty surgery was processed to remove fat and dermatomed the tissue to ˜750 microns. Dermatomed skin was then cleaned in two serial rinses of 5-10 minutes each in room temperature PBS containing an antibiotic/antimycotic solution.
(§3) Skin was treated as asceptic from this point on; all further manipulations were performed in a class II biosafety cabinet. […]
(§4) The harvested skin tissue were stored in RNAlater until use. […] RNA was diluted to a concentration of 23.6 ng/ul (total of 100 ng RNA), and was used as template in a 10 uL PCR volume using Applied Biosciences RNA-to-CT 1 Step kit (AB Catalog # 4392938) and the specific TaqMan probes foreach gene to be quantified. […]
(§5) RNA levels of gene of interest's Relative Expression was calculated using the Delta Delta CT formula.
(§6) RNA was isolated from the tissue harvested at 24 hr and 48 hr post stimulation and gene expression was assessed by quantitative PCR. […]

[2] = bioavailability after a single oral dose, minipig; type: in vivo; settings: plasma, single 5 mg/kg oral dose, DMSO: Kolliphore HS15: hydroxypropyl-β-cyclodextrin (10:10:80)
Text: Bioavailability was 46.5% and 41.0% for 30% Captisol and 30% Cavitron, respectively. 30% Captisol formulation was selected for the 7-day subcutaneous toxicity study in rat.

IL17A mRNA = assay: sRICA ex vivo human skin explant, IL17A expression; type: cell-based; settings: 10 μM, Th17 polarizing conditions
Text: as §1, §2, §3, §4, §5, §6

[3] = metabolic stability in hepatocytes, dog; type: in vitro ADME
[4] = plasma protein binding by Rapid Equilibrium Dialysis, rat; type: in vitro ADME; settings: rat, plasma
Text: (§7) The blood-to-plasma ratios were similar across species (1.22-1.36, Table 9).

Rat Plasma Proteins = assay: as above; type: in vitro ADME
Text: as §7

[5] = system: primary human cell culture platforms; assay: BioMAP Diversity Plus profiling; type: cell-based

CC(C)c1c(O)cc(-c2cc3ccccc3cn2)cc1O
AhR pathway activation as measured by cyp1a1 gene induction [1]: confirmed | bioavailability [2]: 0.1% | inhibition of IL17A message expression (IL17A mRNA): ~45% | half-life at 0.5 μM [3]: 31.9 min | CLint, hep ([3]; 0.5 μM): 7.39 mL/min/g liver | CLint scaled at 0.5 μM ([3]; read-out: Scaled CLint, hep): 240 mL/min/kg | fraction unbound at 4 h, 2 μM ([4]; read-out: % Unbound Mean (% CV)): 0.0306 | fraction unbound at 4 h, 2 μM ([4]; read-out: Mean % Bound (converted)): 0.031 | recovery at 4 h, 2 μM (Rat Plasma Proteins): 104% | % Unbound Replicate (Rat Plasma Proteins; 2 μM): 1.37% and 1.44% and 6.36% | Mean % Stability at 4 hrs (Rat Plasma Proteins; 2 μM): 94.4% | effect on B cell proliferation ([5]; 1 μM, 330 nM, 110 nM and 37 nM): anti-proliferative to B cells | increased biomarkers ([5]; 1 μM, 330 nM, 110 nM and 37 nM): increased IL8, IL1α, sPGE2, ICAM-1, and E-selectin | reduced biomarkers (M-CSF, sIL-17A, sIL-2, sIL-6, sIL-10, Eot3, sTNFα, MCP-1, VCAM-1, MIP-1) ([5]; 1 μM, 330 nM, 110 nM and 37 nM): reductions in various cytokines/chemokines | sIL-17 in BioMAP ([5]; profiles overlaid): observed reduction in sIL-17
